Reference: patent publication US20210261690A9, “Method of Generating Anti-Linaclotide Antibodies and Uses Thereof” (Ironwood Pharmaceuticals, Inc., priority 2018, published 2021)
Where “and” joins values, the source holds several entries; their conditions need not be identical. Identical values can stand only once. Bridge positions count the residues as written; N and C are the ends. Ends that are not written are not given here. Peptide text beside a SMILES is read from it.

How the values were obtained:
[1] = test system: antibody obtained from protocol 2; assay: Confirmatory assay (ELISA bridging assay with linaclotide competition); assay type: binding, rabbit; details: 500 ng/mL antibody from protocol 2, 300 ng/mL SEQ ID NO: 8, 312 ng/mL SEQ ID NO: 9
From the text: The initial bridging assay was developed using a biotinylated form of linaclotide, SEQ ID NO: 8, for antibody capture, and the linaclotide-tracer peptide, SEQ ID NO: 9, for detection on a streptavidin plate. […] A sheep anti-fluorescein antibody conjugated to HRP was used for detection of SEQ ID NO: 9 to enhance the signal over direct detection of the fluorescein moiety by ultraviolet-visible spectroscopy (UV/Vis). In this initial assay, the capture peptide (biotin-linaclotide), detection peptide (fluorescein-linaclotide), and anti-linaclotide antibodies were first incubated overnight in solution to allow complexes to form. These complexes were captured on a streptavidin plate, which was then washed. Bound complexes were detected with an HRP-conjugated anti-fluorescein antibody followed by addition of the HRP substrate and colorimetric detection.
The confirmatory assay was developed as a variation of the ELISA-based bridging assay (Example 6) with competition using fluorescein for detection. The peptide antibody incubation mixture was spiked with native linaclotide, and the concentrations of positive control antibody, capture peptide, and detection peptide were kept constant.
A binding curve was generated using Prism® v.

[2] = test system: anti-linaclotide antibodies obtained using protocol 2; assay: Cross-reactivity competition assay; assay type: binding, rabbit; details: 6.3 μg/mL peptide, 500 ng/mL antibody from protocol 2
From the text: The cross-reactivity assay to test for cross-reactivity to the endogenous hormones, uroguanylin and guanylin, is a competition assay similar to the confirmatory assay (Example 7).
To determine if the positive control antibody produced by protocol 2 could bind either of the endogenous hormones, uroguanylin or guanylin peptides were used in place of linaclotide in a competition assay similar to the confirmatory assay described in Example 7. During development, the IC80 concentration for linaclotide, 6.3 μg/mL, was chosen as a relevant test concentration for cross-reactivity because it is on the higher end of the linear range of the inhibition curve (FIG. 18). This concentration (6.3 μg/mL) is approximately 10,000 times the systemic circulating levels of uroguanylin and guanylin. A non-related peptide, C-type natriuretic peptide (CNP), was added as a negative control in this assay.

[3] = test system: positive control antibody produced by protocol 1; assay: Bridging cross-reactivity assay with fluorescein-modified detection peptides; assay type: binding, rabbit; details: 500 ng/mL antibody, 312 ng/mL SEQ ID NO: 8, 312 and 625 ng/mL fluorescein-modified peptides
From the text: A bridging cross-reactivity assay similar to the screening assay (Example 6) was set up to detect direct binding of the positive control antibody to both linaclotide and uroguanylin or guanylin. For use as detection peptides, uroguanylin and guanylin were synthesized with fluorescein coupled to their N terminus (SEQ ID NO: 10 and SEQ ID NO: 12, respectively; Table 4). This cross-reactivity assay used SEQ ID NO: 8 (Table 4) as the capture peptide, just as in the screening assay, and either SEQ ID NO: 10 (for uroguanylin) or SEQ ID NO: 12 (for guanylin) as the detection peptide. Sheep anti-fluorescein HRP-conjugated antibody was used for detection of positive control antibodies. The antibody must directly bind both the linaclotide-capture peptide and uroguanylin or guanylin to generate a signal in the assay (FIG. 21). A fluorescein-modified PGC1a peptide was purchased for use as a negative control for cross-reactivity.
This cross-reactivity assay was performed using 500 ng/mL of positive control antibody produced by protocol 1, 312 ng/mL of SEQ ID NO: 8, and 2 concentrations (312 and 625 ng/mL) of fluorescein-modified peptides for each set of reactions. […] Positive control antibody is excluded from blank incubations.

[4] = Phase 2b studies for CC, four-week treatment period; cited from earlier work
[5] = after oral administration at therapeutic dose levels; cited from earlier work
[6] = test system: positive control antibody; assay: Direct-binding ELISA of linaclotide-tracer peptide; parameters: species or system rabbit; details: anti-fluorescein antibody conjugated to HRP for detection
From the text: Anti-fluorescein antibody conjugated to HRP was used to detect the linaclotide-tracer peptide, SEQ ID NO: 9. The signal increased with increasing antibody concentration.

[7] = test system: antibody produced by protocol 1; assay: Direct-binding ELISA for cross-reactivity with immobilized biotinylated peptides; parameters: species or system rabbit
Method: To further characterize the interactions between the positive control antibody and the cross-reacting peptides, a direct-binding ELISA experiment was conducted in which varying concentrations of biotinylated peptides (linaclotide, uroguanylin, and negative control parathyroid hormone [PTH]) were immobilized on the plate for antibody capture. The assay was performed using either sera from protocol 1 or anti-uroguanylin serum (Abcam ab52806) in ELISA buffer; no adequate control antibody to guanylin is available. HRP-anti-rabbit secondary antibody was used for the detection of anti-linaclotide antibodies, and HRP-anti-mouse secondary antibody was used for the detection of anti-uroguanylin antibodies from the antiserum. […] The signal for uroguanylin binding was approximately 15% of the signal obtained for linaclotide under the same conditions.

[8] = test system: rabbit anti-linaclotide antibody; assay: Electrochemiluminescence bridging assay, specificity (cross-reactivity); assay type: binding; details: individual human serum
Method: The electrochemiluminescence assay was used as a validation of a method to detect anti-linaclotide antibodies in human serum using a MSD electrochemiluminescence protocol. Low positive control (LPC), high positive control (HPC), relative light units (RLU), coefficient of variation (CV) and confirmation cut points were determined using MSD procedures. The positive control antibodies used were the antibodies harvested from protocol 2.
The assay is an immunogenicity bridging-based assay developed on MesoScale Discovery Electrochemiluminescence (ECL) technology. It is performed by first mixing a biotinylated-linaclotide analog, a sulfotag-labeled linaclotide analog, and the clinical sample together in a multi-well plate. The presence of anti-linaclotide antibodies in the clinical sample forms an immune complex with a biotin-labeled linaclotide analog and a sulfotag-labeled linaclotide analog. The immune complex is subsequently captured on a streptavidin coated MesoScale Discovery multi-well plate followed by a wash step. The captured immune complex is then detected by electrochemiluminescence generated by the sulfotag-labeled linaclotide portion of the immune complex. The signal generated by the sample is then compared to a pre-determined screening cut point to determine if the sample is positive for the presence of anti-linaclotide antibodies. Samples that are determined to be positive are subjected to a second immunogenicity confirmation assay which is performed by mixing a biotinylated-linaclotide analog, a sulfotag-labeled linaclotide analog, the clinical sample, and unlabeled linaclotide together in a multi-well plate. The immune complex is subsequently captured on a streptavidin-coated MesoScale Discovery multi-well plate followed by a wash step. The captured immune complex is then detected by electrochemiluminescence generated by the sulfotag-labeled linaclotide portion of the immune complex. The signal generated by the sample is then compared to a pre-determined confirmation assay cut point to determine if the sample is positive for the presence of anti-linaclotide antibodies. Samples that are confirmed positive by this assay are subsequently tested at different dilutions to determine the titer of the anti-linaclotide antibody.
Specificity (cross-reactivity) of the assay was assessed by spiking ten drug-naive individual human serum samples containing rabbit anti-linaclotide antibody at the HPC (500 ng/mL) and the screening LPC (44 ng/mL) levels with 10 μg/mL Uroguanylin or Guanylin. At the same time, ten replicates of the antibody-spiked samples (without Uroguanylin or Guanylin) at each level were included to establish the % Inhibition. The following formula was used to calculate the % Inhibition for each individual:
% Inhibition=[(1−(Drug with Antibody/Antibody alone)]*100

C[C@@H]1NC(=O)[C@@H]2CCCN2C(=O)[C@H](CC(N)=O)NC(=O)[C@@H]2CSSC[C@H](N)C(=O)N[C@H]3CSSC[C@H](NC1=O)C(=O)N[C@@H]([C@@H](C)O)C(=O)NCC(=O)N[C@H](C(=O)N[C@@H](Cc1ccc(O)cc1)C(=O)O)CSSC[C@H](NC(=O)[C@H](Cc1ccc(O)cc1)NC(=O)[C@H](CCC(=O)O)NC3=O)C(=O)N2 [Linaclotide, C1C2EYC3C1NPAC2TGC3Y] (H-CCEYCCNPACTGCY-OH; disulfide 1-6, 2-10, 5-13)
50% inhibitory concentration (IC50) [1]: 1.4 µg/mL
80% inhibitory concentration (IC80) [1]: 6.3 µg/mL
inhibition of binding [2]: approximately 60%
signal in the direct-binding assay for cross-reactivity [3]: Only linaclotide was able to generate a positive signal
effect on constipation, abdominal discomfort and bloating [4]: reduced constipation, abdominal discomfort, and bloating
levels seen systemically [5]: no detectable levels

Fluorescein-C1 C2 EYC3 C1 NPAC2 TGC3 Y [SEQ ID NO: 9]
binding to the positive control antibody [6]: confirmed

NNDC1 ELC2 VAVAC1 TGC2 L (NNDCELCVAVACTGCL; disulfide 4-12, 7-15; not fully specified (N-terminus); printed as NNDC1 ELC2 VAVAC1 TGC2 L) [Uroguanylin, endogenous hormone]
recognition by antibodies produced by protocol 2 (inhibition versus negative control CNP) [2]: not recognized by antibodies produced by protocol 2
signal for binding relative to the signal obtained for linaclotide ([7]; 60 ng/mL antibody of protocol 1): approximately 15%
binding of antibody produced by protocol 1 ([7]; 60 ng/mL antibody of protocol 1, varying concentrations of biotinylated peptide, FIG. 20): binds to uroguanylin in a concentration-dependent manner
Percent Inhibition ([8]; 10 μg/mL Uroguanylin, antibody at the HPC (500 ng/mL)): 10.7% and 18.6% and 9.5% and −11.3% and 10.1% and −11.7% and −1.3% and −0.5% and 0.6% and 1.9%
Percent Inhibition ([8]; 10 μg/mL Uroguanylin, antibody at the Screening LPC (44.0 ng/mL)): −6.6% and 18.4% and 15.7% and 4.8% and −3.8% and −1.5% and 3.2% and 5.1% and −0.5% and −4.1%
Antibody and 10 μg/mL Uroguanylin (signal) ([8]; antibody at the HPC (500 ng/mL)): 147 and 151 and 145 and 164 and 162 and 185 and 180 (2×) and 169 and 157
Antibody and 10 μg/mL Uroguanylin (signal) ([8]; antibody at the Screening LPC (44.0 ng/mL)): 59 (2×) and 39 and 44 and 52 (4×) and 51 and 53

PGTC1 EIC2 AYAAC1 TGC2 (PGTCEICAYAACTGC; disulfide 4-12, 7-15; not fully specified (N-terminus); printed as PGTC1 EIC2 AYAAC1 TGC2) [Guanylin, endogenous hormone]
recognition by antibodies produced by protocol 2 (inhibition versus negative control CNP) [2]: not recognized by antibodies produced by protocol 2
Antibody and 10 μg/mL Uroguanylin (signal) ([8]; Table 7 (Guanylin), antibody at the HPC (500 ng/mL)): 225 and 199 and 179 and 177 and 174 and 181 and 155 and 135 and 130 and 239
Antibody and 10 μg/mL Uroguanylin (signal) ([8]; Table 7 (Guanylin), antibody at the Screening LPC (44.0 ng/mL)): 71 and 57 (2×) and 55 (2×) and 54 and 53 (2×) and 63 and 51
Percent Inhibition ([8]; Table 7 (Guanylin, 10 μg/mL), antibody at the HPC (500 ng/mL)): 0.0% and 3.2% and 7.6% and −3.4% and 2.2% and −7.8% and −3.9% and −1.9% and −7.1% and −4.5%
Percent Inhibition ([8]; Table 7 (Guanylin, 10 μg/mL), antibody at the Screening LPC (44.0 ng/mL)): −7.1% and 8.2% and 3.4% and 12.5% and 11.0% and 7.4% and 6.4% and 3.6% and 0.1% and 7.0%
